Data reported in patent US10487078B2, “Compositions and methods of targeting mutant K-RAS” (NantBio, Inc., priority 2015, dated 2019).
Read-outs that look alike come from different tables or passages of the source.

Experiments:
K-ras G12D = K-ras G12D (Homo sapiens, UniProt P01116, G12D); test: G-LISA Ras activation assay, 293H cells transfected with G12D mutant; format: cell-based; conditions: 1 hour treatment
Protocol: (§1) 293H cells were seeded in 6-wells at 0.6×10^6 cells per well and transfected next day with 5 μg of Ras wild-type, or G12C, G12D or G12V mutant DNA plasmid vector using transfection reagent Lipofectamine 3000. Next day cells were treated with 3.125-50 μM of Ras compounds for 1 hour. Wild-type transfected cells were subsequently treated with 100 ng/ml EGF for 2 minutes. Cells were washed once in ice-cold PBS, lysed in complete lysis buffer on ice, and processed by G-LISA according to Cytoskeleton protocol.
(§2) In-cell selectivity of the compounds presented herein against a specific K-ras mutant form can also be tested as shown in the following exemplary experiment. 293H cells were seeded in 6-wells and transfected next day with 5 μg of Ras wild-type, or G12C, G12D or G12V mutant DNA plasmid vector. Next day cells were treated with 3.125-50 μM of Ras compounds for 1 hour. Wild-type transfected cells were subsequently treated with 100 ng/ml EGF for 2 minutes. Cells were washed once in ice-cold PBS, lysed in complete lysis buffer on ice, and processed by G-LISA according to Cytoskeleton protocol. FIG. 1 depicts exemplary results.
as §1, with “In still further experiments, the inventors tested selected compounds in a G-LISA assay to compare IC50 values for wild-type and various mutant K-Ras (G12D, G12V) using the following general protocol: 293H” for “293H”

K-ras wild-type (GTP) = K-ras wild-type (GTP) (Homo sapiens, UniProt P01116); test: SPR assay (surface plasmon resonance); format: binding; conditions: 25° C., 8% DMSO
Protocol: (§3) Selected compounds were also tested for selective binding to wild type and mutant forms of K-ras in the active and non-active state using surface plasmon resonance, and exemplary results are shown in Table 4.
(§4) The running buffer in all surface plasmon resonance experiments was 10 mM HEPES pH 7.4, 150 mM NaCl, 0.1% (v/v) Tween-20, 1 mM MgCl2, 8% DMSO. Experiments were carried out on the SensiQ Pioneer optical biosensor. The flow rate was set at 50 μL/min and the temperature was 25° C. kRAS protein was immobilized to the Nickel-NTA charged surface of the SensiQ HisCap chip (sensiqtech.com) giving a yield of 4000 RU. Small molecules were prepared in 100% DMSO and further diluted to 8% DMSO in running buffer. The small molecules were injected using the Taylor diffusion gradient injection mode (OneStep®, see e.g., Evaluation of Taylor dispersion injections: Determining kinetic/affinity interaction constants and diffusion coefficients in label-free biosensing, John G. Quinn, Analytical Biochemistry (2011)). Buffer blanks were injected for double referencing purposes. Data processing and model fitting were performed using Qdat.

K-ras G12D (GTP) = K-ras G12D (GTP) (Homo sapiens, UniProt P01116, G12D); test: SPR assay (surface plasmon resonance); format: binding; conditions: 25° C., 8% DMSO
Protocol: as §3, §4

K-ras G12V (GTP) = K-ras G12V (GTP) (Homo sapiens, UniProt P01116, G12V); test: SPR assay (surface plasmon resonance); format: binding; conditions: 25° C., 8% DMSO
Protocol: as §3, §4

K-Ras wild-type = K-Ras wild-type (Homo sapiens, UniProt P01116); test: G-LISA Ras activation assay, 293H cells transfected with Ras wild-type, EGF-stimulated; format: cell-based; conditions: 1 hour treatment, 100 ng/ml EGF
Protocol: as §1, §2
as §1, with “In still further experiments, the inventors tested selected compounds in a G-LISA assay to compare IC50 values for wild-type and various mutant K-Ras (G12D, G12V) using the following general protocol: 293H” for “293H”

Panc1 (G12D) cells = test: 72 hr cell viability (CellTiterBlue); format: cell-based; conditions: GI50, 72 hr
Protocol: (§5) Viability assays were performed on exemplary compounds and Table 2 below lists exemplary results for selected compounds tested on wild type (Ishikawa) and various K-ras mutants (Panc1-G12D; Panc10.05-G12D; HCT116-G13D).
(§6) Cells are counted and seeded at 1000 cells/36 ul medium/well into 384-well microplates. Cells are returned to 37° C. CO2 incubator for 18 hr. Drug is made as 200× in DMSO and diluted into medium to 10×. To each well is added 4 ul 10× drug, and plates are returned to the incubator. Final assay DMSO concentration is 0.5%. After 72 hr, 8 ul CellTiterBlue (Promega) is added to each well. After 3 hr, fluorescence (Ex550/Em590) is determined on the Victor Plate Reader (Perkin Elmer). Assay range is determined by DMSO control (100% viability) and 100 uM tamoxifen (0% viability). GI50 values are calculated using Graphpad Prism.

Panc10.05 (G12D) cells = test: 72 hr cell viability (CellTiterBlue); format: cell-based; conditions: GI50, 72 hr
Protocol: as §5, §6

[1] = test system: Ishikawa (K-Ras wild-type) cells; test: 72 hr cell viability (CellTiterBlue); format: cell-based; conditions: GI50, 72 hr
Protocol: as §5, §6

HCT116 (G13D) cells = test: 72 hr cell viability (CellTiterBlue); format: cell-based; conditions: GI50, 72 hr
Protocol: as §5, §6

K-ras G12V = K-ras G12V (Homo sapiens, UniProt P01116, G12V); test: G-LISA Ras activation assay, 293H cells transfected with G12V mutant; format: cell-based; conditions: 1 hour treatment
Protocol: as §1, §2
as §1, with “In still further experiments, the inventors tested selected compounds in a G-LISA assay to compare IC50 values for wild-type and various mutant K-Ras (G12D, G12V) using the following general protocol: 293H” for “293H”

[2] = test system: Akt phosphorylation in Panc1 (G12D) cells; test: In-Cell Western Akt phosphorylation; format: cell-based; conditions: EC50, one hour treatment; read-out: In-Cell Western Akt phosporylation Panc1 (G12D)
Protocol: (§7) In-cell phosphorylation assays for Erk and Akt were performed on various of the compounds and exemplary results are shown in Table 3 below using […] and Panc10.05 cell lines for G12D K-ras mutants.
(§8) Cells are seeded in complete medium into black sided, clear-bottom 384-well microplates at 3000 cells/[…]/well. Plates are returned to 37° C. CO2 incubator for 18 hr. Drug is made as 200× in DMSO and diluted into medium to 10×. To each well is added 4 ul 10× test article or controls, and plates are returned to the incubator. Final assay DMSO concentration is 0.5%. After one hour, cells are fixed in formaldehyde, rinsed & permeabilized with triton X-100, and blocked with BSA/Goat serum blocking solution. Primary phospho-Akt and phospho-ERK antibodies are added and plates are incubated overnight at 4° C. Plates are rinsed with Tween-20 wash buffer and secondary antibody (Goat anti-rabbit, Thermofisher) is added. After 2 hours, plates are rinsed in Tween-20 wash buffer, and then PBS. Plates are imaged on the Celigo (Nexcelom) and cellular fluorescence is quantitated. Full inhibition of phospho-Akt is achieved with 1 uM BEZ235 (Sellekchem), while full inhibition of phospho-ERK is achieved with 1 uM MEK Inhibitor II Calbiochem). EC50 values are calculated using Graphpad Prism.

[3] = test system: Akt phosphorylation in Panc10.05 (G12D) cells; test: In-Cell Western Akt phosphorylation; format: cell-based; conditions: EC50, one hour treatment; read-out: In-Cell Western Akt phosporylation Panc10.05 (G12D)
Protocol: as §7, §8

[4] = test system: Erk phosphorylation in Panc10.05 (G12D) cells; test: In-Cell Western Erk phosphorylation; format: cell-based; conditions: EC50, one hour treatment; read-out: In-Cell Western Erk phosporylation Panc10.05 (G12D)
Protocol: as §7, §8

[5] = test system: Erk phosphorylation in Panc1 (G12D) cells; test: In-Cell Western Erk phosphorylation; format: cell-based; conditions: EC50, one hour treatment; read-out: In-Cell Western Erk phosporylation Panc1 (G12D)
Protocol: as §7, §8

[6] = Table 1, G-LISA, 293H transfected, read-out: IC50 (μM) G12D
[7] = Table 5, IC50, 293H transfected, read-out: G-LISA (G12D)
[8] = Table 5, IC50, 293H transfected, read-out: G-LISA (wild type)
[9] = Table 1, G-LISA, 293H transfected, read-out: IC50 (μM) Wild-type
[10] = Table 1, G-LISA, 293H transfected, read-out: IC50 (μM) G12V

IC50 (K-ras G12D; [6]) [µM] | IC50 (K-ras G12D; [7]) [µM] | Kd (K-ras wild-type (GTP)) [µM] | SPR Assay Wild-type (GTP) Rmax (K-ras wild-type (GTP)) | Kd (K-ras G12D (GTP)) [µM] | SPR Assay G12D (GTP) Rmax (K-ras G12D (GTP)) | Kd (K-ras G12V (GTP)) [µM] | SPR Assay G12V (GTP) Rmax (K-ras G12V (GTP)) | SMILES | IC50 (K-Ras wild-type; [8]) [µM] | IC50 (Panc1 (G12D) cells) [µM] | IC50 (Panc10.05 (G12D) cells) [µM] | IC50 [1] [µM] | IC50 (HCT116 (G13D) cells) [µM] | IC50 (K-Ras wild-type; [9]) [µM] | IC50 (K-ras G12V; [10]) [µM] | IC50 (K-ras G12V; Table 5, IC50, 293H transfected, read-out: G-LISA (G12V)) [µM] | EC50 [2] [µM] | EC50 [3] [µM] | EC50 [4] [nM] | EC50 [5] [µM]
> 25 | > 25 | 6.4 | Rmax = 14.6 ± 0.1 |  |  |  |  | Cc1nc(C)c(C(=O)Nc2nc(-c3ccc4c(c3)CC(=O)N4)cs2)s1 [Compound 4639] |  |  |  |  |  |  |  |  |  |  |  | 
> 25 | > 25 |  |  | 4.8 | Rmax = 8.73 | 36.8 | Rmax = 143 ± 1 | Cc1nc(C)c(C(=O)Nc2nc(-c3ccc4c(c3)CCC(=O)O4)cs2)s1 [Compound 4664] |  |  |  |  |  |  |  |  |  |  |  | 
> 25 | > 25 |  |  | 27.2 | Rmax = 389 ± 1 | 15.2 | Rmax = 57.1 ± 0.2 | O=C1CCc2cc(-c3csc(NC(=O)c4scnc4-c4ccccc4)n3)ccc2N1 [Compound 4800] |  |  |  |  |  |  |  |  |  |  |  | 
> 25 | 187 |  |  | 570 | Rmax = 219 ± 5 | 12.1 | Rmax = 100.3 ± 0.2 | Cc1nc(C)c(C(=O)Nc2nc(-c3ccc4c(c3)CCC(=O)N4)cs2)[nH]1 [Compound 4805] | 7 |  |  |  |  |  |  |  |  |  |  | 
 |  |  |  |  |  |  |  | Cc1nc(Cc2ccccn2)sc1C(=O)Nc1nc(-c2ccc3c(c2)CCC(=O)N3)cs1 [Compound 4893] |  | ≥ 25 | ≥ 25 | ≥ 25 | ≥ 25 |  |  |  | > 25 | > 25 | > 25000 | > 25
 |  |  |  |  |  |  |  | Cc1nc(-n2ccnc2)sc1C(=O)Nc1nc(-c2ccc3c(c2)CCC(=O)N3)cs1 [Compound 4894] |  | ≥ 25 | ≥ 25 | ≥ 25 | ≥ 25 |  |  |  | > 25 | > 25 | > 25000 | > 25
 |  |  |  |  |  |  |  | Cc1nc(N2CCOCC2)sc1C(=O)Nc1nc(-c2ccc3c(c2)CCC(=O)N3)cs1 [Compound 4895] |  | ≥ 25 | ≥ 25 | ≥ 25 | ≥ 25 |  |  |  | > 25 | > 25 | > 25000 | > 25
 |  |  |  |  |  |  |  | COCCOc1nc(C)c(C(=O)Nc2nc(-c3ccc4c(c3)CCC(=O)N4)cs2)s1 [Compound 4896] |  | ≥ 25 | ≥ 25 | 19 | 22 |  |  |  | 14 | 12 | 8000 | 8

SMILES | IC50 (K-ras G12D; [6]) [µM] | IC50 (K-ras G12D; [7]) [µM] | Kd (K-ras wild-type (GTP)) [µM] | SPR Assay Wild-type (GTP) Rmax (K-ras wild-type (GTP)) | Kd (K-ras G12D (GTP)) [µM] | SPR Assay G12D (GTP) Rmax (K-ras G12D (GTP)) | Kd (K-ras G12V (GTP)) [µM] | SPR Assay G12V (GTP) Rmax (K-ras G12V (GTP)) | IC50 (K-Ras wild-type; [8]) [µM] | IC50 (Panc1 (G12D) cells) [µM] | IC50 (Panc10.05 (G12D) cells) [µM] | IC50 [1] [µM] | IC50 (HCT116 (G13D) cells) [µM] | IC50 (K-Ras wild-type; [9]) [µM] | IC50 (K-ras G12V; [10]) [µM] | IC50 (K-ras G12V; Table 5, IC50, 293H transfected, read-out: G-LISA (G12V)) [µM] | EC50 [2] [µM] | EC50 [3] [µM] | EC50 [4] [nM] | EC50 [5] [µM]
Cc1nc(C)c(C(=O)Nc2nc(-c3ccc4c(c3)CCC(=O)N4Cc3ccccc3)cs2)s1 [Compound 4888] | 6 | 6 |  |  |  |  |  |  | 11.3 | 9 | 4 | 5 | 7 | 11.3 | 14.5 | 14.5 | 5 | 3 | 2000 | 4
CCc1nc(C)c(C(=O)Nc2nc(-c3ccc4c(c3)CCC(=O)N4)cs2)s1 [Compound 4891] | 5 |  |  |  |  |  |  |  |  | 11 | 4 | 12 | 13 | 11.5 | 9.3 |  | 7 | 3 | 2000 | 2
Cc1nc(C2CCOC2)sc1C(=O)Nc1nc(-c2ccc3c(c2)CCC(=O)N3)cs1 (centres unmarked) [Compound 4892] | 6.5 |  |  |  |  |  |  |  |  | 17 | 6 | 14 | 14 |  |  |  | 12 | 6 | 2000 | 5
